Experimental data from PMC5120204, “Identification of an orally active small-molecule PTHR1 agonist for the treatment of hypoparathyroidism” (Nature Communications, 2016).
Where two headings read alike, the source gives them in different places.

Legend:
[1] = target: T1, hPTHR1 (Homo sapiens, UniProt Q03431); assay: Receptor binding assay, competition with 125I-[Aib1,3,M]–PTH(1–15) on COS-7 membranes; settings: at 100 μmol l^−1
T1 construct: similar to that of cells expressing full-length hPTHR1; expressed in transfected cells; host or cells: COS-7 (transient, FuGENE HD)
T1 sequence (Q03431 27-593 E93Y/D94P/K95Y/E96D/A97V/T99D/G100Y/S101A): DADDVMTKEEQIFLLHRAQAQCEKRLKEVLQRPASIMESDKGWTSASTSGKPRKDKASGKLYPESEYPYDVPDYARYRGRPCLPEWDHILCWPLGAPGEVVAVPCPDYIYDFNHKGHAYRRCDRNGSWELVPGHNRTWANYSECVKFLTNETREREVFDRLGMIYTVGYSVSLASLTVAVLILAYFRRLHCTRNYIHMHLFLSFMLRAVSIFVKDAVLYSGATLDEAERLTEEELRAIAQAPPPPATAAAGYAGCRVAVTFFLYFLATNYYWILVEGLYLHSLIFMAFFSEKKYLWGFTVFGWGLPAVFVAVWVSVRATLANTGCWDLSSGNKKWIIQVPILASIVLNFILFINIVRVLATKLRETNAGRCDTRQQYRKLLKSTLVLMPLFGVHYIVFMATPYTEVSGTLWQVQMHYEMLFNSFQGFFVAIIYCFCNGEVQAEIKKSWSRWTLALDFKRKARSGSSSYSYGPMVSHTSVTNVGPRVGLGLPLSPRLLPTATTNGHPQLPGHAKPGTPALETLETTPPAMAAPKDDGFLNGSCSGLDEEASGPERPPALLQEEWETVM
Protocol: COS-7 cells (ATCC) were seeded into 10-cm dishes (1.7 × 10^6 cells per dish) and incubated overnight. The next day, the COS-7 cells were transfected by adding 500 μl of a mixture of hPTHR1 plasmid (10 μg per dish), FuGENE HD Transfection Reagent (40 μl per dish, Promega) and Opti-MEM I Reduced Serum Medium (450 μl per well, Life Technologies) to each dish. On the third day after the cells were seeded into the dishes, the culture medium in the dishes was discarded, each dish was washed with 5 ml of Buffer A (10 mmol l^−1 Tris-HCl, pH 7.4/4 mmol l^−1 EDTA) without protease inhibitor cocktail (PI; Nacalai Tesque, Inc.), and then 750 μl of Buffer A (10 mmol l^−1 Tris-HCl, pH 7.4/4 mmol l^−1 EDTA/1 × PI) was added to each dish. […] The protein concentration was determined using Protein Assay Dye Reagent Concentrate (Bio-Rad Laboratories, Inc). […]
The binding of hPTH(1–34) and PCO371 free base to hPTHR1 was evaluated by competition assay using ^125I-[Aib^1,3,M]PTH(1–15) as the competing entity. […] The dried filter was recovered, and the ^125I radioactivity was measured using a gamma counter. […] Total ^125I count rates (cpm) measured by the gamma counter were used as the primary data. Binding to hPTHR1 was evaluated by calculating the per cent specific binding from the following formula using Microsoft Office Excel 2007.
Percentage specific binding was calculated by the following formula: equation (1) […]

[2] = Pharmacokinetics in OVX rats; format: in vivo; settings: female, Crl:CD(SD), rat, plasma, iv

With Cc1cc(N2C(=O)NC(=O)C2(C)C)cc(C)c1CCS(=O)(=O)N1CCC2(CC1)N=C(c1ccc(OC(F)(F)F)cc1)NC2=O [PCO371, 1-{3,5-dimethyl-4-[2-({4-oxo-2-[4-(trifluoromethoxy)phenyl]-1,3,8-triazaspiro[4.5]dec-1-en-8-yl}sulfonyl)ethyl]phenyl}-5,5-dimethylimidazolidine-2,4-dione] the “inhibition of the binding of 125I-[Aib1,3,M]–PTH(1–15)” value [1] was “almost completely”, the concentration at 2 min ([2]; i.v. 3 mg kg-1, read-out: C2min (concentration at 2 min after administration)) was 17500 ng/mL and the concentration at 2 min ([2]; i.v. 10 mg kg-1, read-out: C2min (concentration at 2 min after administration)) was 50100 ng/mL.
